Reference: PubChem BioAssay AID248 (DTP/NCI, 2004)
Several values for one entry are separate records, joined by “and”; a condition that tells them apart may be missing. Identical values can stand only once. Inconclusive results and toxic doses are left out. Rule as the data show it: active = T/C of 150% or more; inactive = T/C below 125%.

Test system: L1210 leukemia ip in BDF1 mice, survival T/C
Experiment: NCI In Vivo Anticancer Drug Screen. Data for tumor model L1210 Leukemia (intraperitoneal) in B6D2F1 (BDF1) mice
Settings: higher = longer survival
Procedure, shortened: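 Each compound was tested against a transplantable tumor grown in mice. The endpoint was survival, with treated animals benchmarked against vehicle controls as a simple ratio.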

Measured: T/C

O=P1(N(CCCl)CCCl)NCCCO1 (configuration not stated)
inactive: endpoint: mean survival time, dose: 0.9 mg/kg/injection, schedule: Q01DX009 (ip), vehicle: saline 99 % of control and 100 % of control | endpoint: mean survival time, dose: 1.0 mg/kg/injection, schedule: Q01DX Z (ip), vehicle: methylcellulose (MC) 93 % of control | endpoint: mean survival time, dose: 1.0 mg/kg/injection, schedule: Q01DX Z (oral), vehicle: saline 93 % of control | endpoint: mean survival time, dose: 1.0 mg/kg/injection, schedule: Q07DX Z (ip), vehicle: saline 103 % of control | endpoint: mean survival time, dose: 1.8 mg/kg/injection, schedule: Q01DX009 (ip), vehicle: saline 94 % of control | endpoint: mean survival time, dose: 2.5 mg/kg/injection, schedule: Q07DX Z (ip), vehicle: saline 97 % of control | endpoint: mean survival time, dose: 3.2 mg/kg/injection, schedule: Q01DX001 (ip), vehicle: saline 95 % of control | endpoint: mean survival time, dose: 3.5 mg/kg/injection, schedule: Q01DX009 (ip), vehicle: saline 100 % of control and 104 % of control | endpoint: mean survival time, dose: 3.5 mg/kg/injection, schedule: Q03HX032 (ip), vehicle: saline 110 % of control | endpoint: mean survival time, dose: 3.5 mg/kg/injection, schedule: Q## X032 (ip), vehicle: saline 110 % of control | endpoint: mean survival time, dose: 4.3 mg/kg/injection, schedule: Q01DX Z (ip), vehicle: saline 98 % of control | endpoint: mean survival time, dose: 5.0 mg/kg/injection, schedule: Q01DX Z (ip), vehicle: methylcellulose (MC) 105 % of control | endpoint: mean survival time, dose: 5.0 mg/kg/injection, schedule: Q07DX Z (ip), vehicle: saline 97 % of control | endpoint: mean survival time, dose: 5.36 mg/kg/injection, schedule: Q03HX032 (ip), vehicle: saline 102 % of control | endpoint: mean survival time, dose: 5.36 mg/kg/injection, schedule: Q## X032 (ip), vehicle: saline 102 % of control | endpoint: mean survival time, dose: 5.6 mg/kg/injection, schedule: Q13HX018 (ip), vehicle: saline 98 % of control | endpoint: mean survival time, dose: 6.0 mg/kg/injection, schedule: Q01DX Z (oral), vehicle: saline 108 % of control | endpoint: mean survival time, dose: 6.0 mg/kg/injection, schedule: Q03DX Z (ip), vehicle: saline 109 % of control | endpoint: mean survival time, dose: 6.25 mg/kg/injection, schedule: Q01DX009 (ip), vehicle: saline 104 % of control and 107 % of control | endpoint: mean survival time, dose: 6.25 mg/kg/injection, schedule: Q01DX Z (ip), vehicle: saline 102 % of control | endpoint: mean survival time, dose: 6.3 mg/kg/injection, schedule: Q01DX001 (ip), vehicle: saline 94 % of control | endpoint: mean survival time, dose: 7.13 mg/kg/injection, schedule: Q01DX Z (ip), vehicle: carboxymethylcellulose (CMC) 109 % of control | endpoint: mean survival time, dose: 7.5 mg/kg/injection, schedule: Q01DX009 (ip), vehicle: saline 110 % of control | endpoint: mean survival time, dose: 7.5 mg/kg/injection, schedule: Q01DX Z (ip), vehicle: saline 110 % of control | endpoint: mean survival time, dose: 7.5 mg/kg/injection, schedule: Q04DX002 (ip), vehicle: saline 94 % of control and 111 % of control | endpoint: mean survival time, dose: 8.5 mg/kg/injection, schedule: Q01DX Z (ip), vehicle: saline 110 % of control | endpoint: mean survival time, dose: 9.4 mg/kg/injection, schedule: Q01DX001 (ip), vehicle: water 103 % of control | endpoint: mean survival time, dose: 9.9 mg/kg/injection, schedule: Q01DX010 (ip), vehicle: saline 104 % of control | endpoint: mean survival time, dose: 10.0 mg/kg/injection, schedule: Q01DX Z (ip), vehicle: methylcellulose (MC) 104 % of control | endpoint: mean survival time, dose: 10.0 mg/kg/injection, schedule: Q07DX Z (ip), vehicle: saline 102 % of control | endpoint: mean survival time, dose: 11.25 mg/kg/injection, schedule: Q01DX001 (ip), vehicle: saline 98 % of control and 105 % of control | endpoint: mean survival time, dose: 11.3 mg/kg/injection, schedule: Q01DX Z (ip), vehicle: saline 113 % of control | endpoint: mean survival time, dose: 11.3 mg/kg/injection, schedule: Q## X Z (ip), vehicle: saline 110 % of control | endpoint: mean survival time, dose: 12.0 mg/kg/injection, schedule: Q01DX001 (ip), vehicle: saline 94 % of control and 111 % of control | endpoint: mean survival time, dose: 12.0 mg/kg/injection, schedule: Q01DX Z (im), vehicle: saline 97 % of control | endpoint: mean survival time, dose: 12.0 mg/kg/injection, schedule: Q01DX Z (oral), vehicle: saline 109 % of control | endpoint: mean survival time, dose: 12.0 mg/kg/injection, schedule: Q02DX010 (ip), vehicle: saline 111 % of control | endpoint: mean survival time, dose: 12.0 mg/kg/injection, schedule: Q03DX Z (ip), vehicle: saline 107 % of control | endpoint: mean survival time, dose: 12.5 mg/kg/injection, schedule: Q01DX001 (ip), vehicle: saline 96 % of control | endpoint: mean survival time, dose: 12.5 mg/kg/injection, schedule: Q01DX009 (ip), vehicle: saline 110 % of control | endpoint: mean survival time, dose: 12.5 mg/kg/injection, schedule: Q01DX Z (ip), vehicle: carboxymethylcellulose (CMC) 101 % of control | endpoint: mean survival time, dose: 12.6 mg/kg/injection, schedule: Q01DX009 (ip), vehicle: saline 110 % of control | endpoint: mean survival time, dose: 12.6 mg/kg/injection, schedule: Q01DX Z (ip), vehicle: saline 110 % of control | endpoint: mean survival time, dose: 15.0 mg/kg/injection, schedule: Q01DX Z (ip), vehicle: methylcellulose (MC) 100 % of control | endpoint: mean survival time, dose: 15.0 mg/kg/injection, schedule: Q04DX002 (ip), vehicle: saline 103 % of control | endpoint: mean survival time, dose: 15.0 mg/kg/injection, schedule: Q07DX Z (ip), vehicle: saline 107 % of control | endpoint: mean survival time, dose: 18.75 mg/kg/injection, schedule: Q01DX001 (ip), vehicle: water 103 % of control | endpoint: mean survival time, dose: 18.76 mg/kg/injection, schedule: Q02DX010 (ip), vehicle: saline 112 % of control | endpoint: mean survival time, dose: 19.0 mg/kg/injection, schedule: Q02DX010 (ip), vehicle: saline 110 % of control | endpoint: mean survival time, dose: 20.0 mg/kg/injection, schedule: Q01DX Z (ip), vehicle: methylcellulose (MC) 98 % of control | endpoint: mean survival time, dose: 22.5 mg/kg/injection, schedule: Q01DX001 (ip), vehicle: saline 106 % of control and 109 % of control | endpoint: mean survival time, dose: 22.5 mg/kg/injection, schedule: Q## X Z (ip), vehicle: saline 105 % of control | endpoint: mean survival time, dose: 25.0 mg/kg/injection, schedule: Q01DX006 (iv), vehicle: saline 103 % of control | endpoint: mean survival time, dose: 25.0 mg/kg/injection, schedule: Q01DX Z (im), vehicle: saline 113 % of control | endpoint: mean survival time, dose: 25.0 mg/kg/injection, schedule: Q04DX003 (ip), vehicle: saline 104 % of control | endpoint: mean survival time, dose: 28.5 mg/kg/injection, schedule: Q01DX Z (ip), vehicle: carboxymethylcellulose (CMC) 114 % of control | endpoint: mean survival time, dose: 37.0 mg/kg/injection, schedule: Q01DX001 (ip), vehicle: water 114 % of control | endpoint: mean survival time, dose: 37.5 mg/kg/injection, schedule: Q01DX001 (ip), vehicle: saline with Tween-80 112 % of control | endpoint: mean survival time, dose: 37.5 mg/kg/injection, schedule: Q01DX001 (ip), vehicle: water 114 % of control | endpoint: mean survival time, dose: 45.0 mg/kg/injection, schedule: Q13HX018 (ip), vehicle: saline 107 % of control | endpoint: mean survival time, dose: 45.0 mg/kg/injection, schedule: Q## X Z (ip), vehicle: saline 105 % of control | endpoint: mean survival time, dose: 50.0 mg/kg/injection, schedule: Q01DX Z (ip), vehicle: methylcellulose (MC) 112 % of control | endpoint: mean survival time, dose: 67.5 mg/kg/injection, schedule: Q## X006 (ip), vehicle: saline 100 % of control | endpoint: mean survival time, dose: 86.0 mg/kg/injection, schedule: Q01DX001 (ip), vehicle: saline 112 % of control | endpoint: mean survival time, dose: 90.0 mg/kg/injection, schedule: Q01DX009 (ip), vehicle: saline 107 % of control | endpoint: mean survival time, dose: 90.0 mg/kg/injection, schedule: Q01DX Z (ip), vehicle: saline 98 % of control | endpoint: mean survival time, dose: 90.0 mg/kg/injection, schedule: Q02DX010 (ip), vehicle: carboxymethylcellulose (CMC) 105 % of control | endpoint: mean survival time, dose: 97.0 mg/kg/injection, schedule: Q02DX010 (ip), vehicle: carboxymethylcellulose (CMC) 107 % of control | endpoint: mean survival time, dose: 97.0 mg/kg/injection, schedule: Q02DX010 (ip), vehicle: other 98 % of control | endpoint: mean survival time, dose: 100.0 mg/kg/injection, schedule: Q01DX Z (ip), vehicle: methylcellulose (MC) 108 % of control | endpoint: mean survival time, dose: 100.0 mg/kg/injection, schedule: Q01DX Z (oral), vehicle: saline 107 % of control | endpoint: mean survival time, dose: 135.0 mg/kg/injection, schedule: Q02DX010 (ip), vehicle: saline 111 % of control | endpoint: mean survival time, dose: 180.0 mg/kg/injection, schedule: Q01DX009 (ip), vehicle: saline 96 % of control | endpoint: mean survival time, dose: 180.0 mg/kg/injection, schedule: Q01DX010 (ip), vehicle: saline 102 % of control | endpoint: mean survival time, dose: 200.0 mg/kg/injection, schedule: Q01DX009 (ip), vehicle: saline 93 % of control | endpoint: mean survival time, dose: 200.0 mg/kg/injection, schedule: Q01DX Z (ip), vehicle: saline 100 % of control | endpoint: mean survival time, dose: 320.0 mg/kg/injection, schedule: Q04DX003 (ip), vehicle: saline 111 % of control | endpoint: mean survival time, dose: 360.0 mg/kg/injection, schedule: Q01DX001 (ip), vehicle: saline 113 % of control | endpoint: mean survival time, dose: 400.0 mg/kg/injection, schedule: Q04DX002 (ip), vehicle: saline 100 % of control | endpoint: mean survival time, dose: 468.0 mg/kg/injection, schedule: Q04DX002 (ip), vehicle: saline 111 % of control | endpoint: mean survival time, dose: 900.0 mg/kg/injection, schedule: Q01DX001 (ip), vehicle: saline 102 % of control | endpoint: median survival time, dose: 5.0 mg/kg/injection, schedule: Q01DX009 (ip), vehicle: saline 101 % of control and 110 % of control | endpoint: median survival time, dose: 10.0 mg/kg/injection, schedule: Q01DX001 (ip), vehicle: saline 99 % of control and 100 % of control | endpoint: median survival time, dose: 20.0 mg/kg/injection, schedule: Q01DX001 (ip), vehicle: saline 106 % of control | endpoint: median survival time, dose: 50.0 mg/kg/injection, schedule: Q08DX003 (ip), vehicle: saline 95 % of control and 97 % of control | endpoint: median survival time, dose: 90.0 mg/kg/injection, schedule: Q01DX009 (ip), vehicle: saline 105 % of control and 112 % of control | endpoint: median survival time, dose: 180.0 mg/kg/injection, schedule: Q01DX009 (ip), vehicle: saline 93 % of control
